Reference: patent US6667335B2, “Imidazole derivatives” (Hoffmann-La Roche Inc., priority 2001, dated 2003)

How the values were obtained:
NMDA-receptor subtype 2B = molecular target: T1, NMDA-receptor subtype 2B (Rattus norvegicus, UniProt P35439+Q00960); test: 3H-Ro 25-6981 binding (displacement) on rat brain membranes; details: displacement of 5 nM 3H-Ro 25-6981, rat whole brain membranes (minus cerebellum and medulla oblongata), 2 hours at 4° C.
T1 construct: Membranes were prepared by homogenization of the whole brain minus cerebellum and medulla oblongata; from tissue; host or cells: rat whole brain minus cerebellum and medulla oblongata, membrane preparation
T1 sequence (Q00960 27-1482, other chains not shown): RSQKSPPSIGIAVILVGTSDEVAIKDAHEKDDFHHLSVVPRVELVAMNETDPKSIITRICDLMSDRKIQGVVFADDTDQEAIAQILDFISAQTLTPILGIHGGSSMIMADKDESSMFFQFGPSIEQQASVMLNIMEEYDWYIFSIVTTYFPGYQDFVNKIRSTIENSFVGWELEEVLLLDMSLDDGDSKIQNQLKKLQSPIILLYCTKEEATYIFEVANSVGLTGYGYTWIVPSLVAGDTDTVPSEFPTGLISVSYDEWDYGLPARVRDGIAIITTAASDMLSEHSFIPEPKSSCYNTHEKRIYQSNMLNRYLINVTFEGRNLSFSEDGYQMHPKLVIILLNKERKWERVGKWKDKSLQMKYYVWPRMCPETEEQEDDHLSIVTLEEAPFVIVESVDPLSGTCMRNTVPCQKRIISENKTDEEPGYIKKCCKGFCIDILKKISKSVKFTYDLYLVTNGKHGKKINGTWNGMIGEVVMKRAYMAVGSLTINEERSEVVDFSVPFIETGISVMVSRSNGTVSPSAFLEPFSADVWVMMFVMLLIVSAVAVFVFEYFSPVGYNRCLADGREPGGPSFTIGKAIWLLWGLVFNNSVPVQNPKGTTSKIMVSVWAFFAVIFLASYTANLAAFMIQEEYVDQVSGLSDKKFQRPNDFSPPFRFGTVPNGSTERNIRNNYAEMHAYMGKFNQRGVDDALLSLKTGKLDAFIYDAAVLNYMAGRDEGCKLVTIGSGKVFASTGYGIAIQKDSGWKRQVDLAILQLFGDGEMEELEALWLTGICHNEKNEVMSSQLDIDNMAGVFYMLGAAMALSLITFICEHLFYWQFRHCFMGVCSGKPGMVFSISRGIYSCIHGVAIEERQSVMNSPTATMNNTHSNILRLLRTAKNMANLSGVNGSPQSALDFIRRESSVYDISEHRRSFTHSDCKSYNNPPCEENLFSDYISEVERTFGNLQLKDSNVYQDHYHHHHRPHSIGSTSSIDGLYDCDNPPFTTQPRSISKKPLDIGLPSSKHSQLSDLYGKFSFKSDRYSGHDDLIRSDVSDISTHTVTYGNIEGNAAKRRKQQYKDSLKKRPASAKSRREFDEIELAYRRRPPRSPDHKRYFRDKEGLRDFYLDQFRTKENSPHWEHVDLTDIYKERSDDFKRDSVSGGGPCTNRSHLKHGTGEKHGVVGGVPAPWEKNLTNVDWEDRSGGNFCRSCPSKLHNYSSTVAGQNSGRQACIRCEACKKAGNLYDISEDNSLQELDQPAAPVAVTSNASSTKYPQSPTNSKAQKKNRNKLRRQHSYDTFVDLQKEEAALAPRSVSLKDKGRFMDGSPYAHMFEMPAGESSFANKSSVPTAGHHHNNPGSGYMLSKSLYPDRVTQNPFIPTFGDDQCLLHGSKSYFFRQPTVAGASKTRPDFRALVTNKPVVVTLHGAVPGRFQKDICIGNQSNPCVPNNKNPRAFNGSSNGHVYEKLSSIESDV
Procedure: ^3H[R-(R*,S*)]-(α-(4-Hydroxy-phenyl)-β-methyl-4-(phenyl-methyl)-1-piperidine propanol)binding
Male Füllinsdorf albino rats weighing between 150-200 g were used. Membranes were prepared by homogenization of the whole brain minus cerebellum and medulla oblongata with a Polytron (10.000 rpm, 30 seconds), in 25 volumes of a cold Tris-HCl 50 mM, EDTA 10 mM, pH 7.1 buffer. The homogenate was centrifuged at 48,000 g for 10 minutes at 4° C. The pellet was resuspended using the Polytron in the same volume of buffer and the homogenate was incubated at 37° C. for 10 minutes. After centrifugation the pellet was homogenized in the same buffer and frozen at −80° C. for at least 16 hours but not more than 10 days. For the binding assay the homogenate was thawed at 37° C., centrifuged and the pellet was washed three times as above in a Tris-HCl 5 mM, pH 7.4 cold buffer. The final pellet was resuspended in the same buffer and used at a final concentration of […]. ^3H-Ro 25-6981 binding experiments were performed using a Tris-HCl 50 mM, pH 7.4 buffer. For displacement experiments 5 nM of ^3H-Ro 25-6981 were used and non specific binding was measured using 10 mM of tetrahydroisoquinoline and usually it accounts for 10% of the total. The incubation time was 2 hours at 4° C. and the assay was stopped by filtration on Whatmann GF/B glass fiber filters (Unifilter-96, Packard, Zürich, Switzerland). The filters were washed 5 times with cold buffer. The radioactivity on the filter was counted on a Packard Top-count microplate scintillation counter after addition of […] of microscint 40 (Canberra Packard S.A., Zuirich, Switzerland).
The effects of compounds were measured using a minimum of 8 concentrations and repeated at least once.

Q: What does the source list for Cc1cc(-n2cnc(Cn3ccnc3C)c2)ccc1F.Cl.Cl [Example 24, 1H-Imidazole, 1-[[1-(4-Fluoro-3-methylphenyl)-1H-imidazol-4-yl]methyl]-2-methyl-, Hydrochloride (1:2)]?
A: IC50 (NMDA-receptor subtype 2B): 16 nM; melting point: 210 to 212 °C

Q: What does the source list for Cc1ccc(-n2cnc(Cn3ccnc3C)c2)cc1C(F)(F)F.Cl.Cl [Example 39, 1H-Imidazole, 2-Methyl-1-[[1-[4-methyl-3-(trifluoromethyl)phenyl]-1H-imidazol-4-yl]methyl]-, Hydrochloride (1:2)]?
A: IC50 (NMDA-receptor subtype 2B): 43 nM; melting point: > 235 °C (dec.)

Q: For Cc1nccn1Cc1cn(-c2ccc(Cl)cc2)cn1.Cl.Cl [Example 48, 1H-Imidazole, 1-[[1-(4-Chlorophenyl)-1H-imidazol-4-yl]methyl]-2-methyl-, Hydrochloride (1:2)], which IC50 (NMDA-receptor subtype 2B) is on record?
A: Its IC50 is 61 nM.

Q: And the melting point?
A: Its melting point is 243 to 244 °C.

Q: Which results are given for Cc1nccn1Cc1cn(-c2ccc3c(c2)OCO3)cn1.Cl.Cl [Example 52, 1H-Imidazole, 1-[[1-(1,3-Benzodioxol-5-yl)-1H-imidazol-4-yl]methyl]-2-methyl-, Hydrochloride (1:2)]?
A: IC50 (NMDA-receptor subtype 2B): 78 nM; melting point: > 250 °C

Q: With CCc1nccn1Cc1cn(-c2ccc(OC)c(Cl)c2)cn1.Cl.Cl [Example 58, 1H-Imidazole, 1-[[1-(3-Chloro-4-methoxyphenyl)-1H-imidazol-4-yl]methyl]-2-ethyl-, Hydrochloride (1:2)] as the compound, how does the IC50 (NMDA-receptor subtype 2B) read?
A: Its IC50 is 93 nM.

Q: What about the melting point of the same compound?
A: Its melting point is 220 to 221 °C.

Q: Which results are given for Cc1ccc(-n2cnc(Cn3ccnc3C)c2)cc1Cl.Cl.Cl [Example 87, 1H-Imidazole, 1-[[1-(3-Chloro-4-methylphenyl)-1H-imidazol-4-yl]methyl]-2-methyl-, Hydrochloride (1:2)]?
A: IC50 (NMDA-receptor subtype 2B): 17 nM; melting point: 242 to 243 °C

Q: What does the source list for Cc1ccc(-n2cnc(Cn3ccnc3)c2)cc1Cl.Cl.Cl [Example 89, 1H-Imidazole, 1-(3-Chloro-4-methylphenyl)-4-(1H-imidazol-1-yl-methyl)-, Hydrochloride (1:2)]?
A: IC50 (NMDA-receptor subtype 2B): 48 nM; melting point: 218 to 220 °C

Q: Which IC50 (NMDA-receptor subtype 2B) does the source give for Cc1nccn1Cc1cn(-c2ccc(F)c(Cl)c2)cn1.Cl.Cl [Example 93, 1H-Imidazole, 1-[[1-(3-Chloro-4-fluorophenyl)-1H-imidazol-4-yl]methyl]-2-methyl-, Hydrochloride (1:2)] here?
A: The IC50 was 20 nM.

Q: And the melting point?
A: The melting point was 224 to 225 °C.

Q: What does the source list for CCc1nccn1Cc1cn(-c2ccc(F)c(Cl)c2)cn1.Cl.Cl [Example 94, 1H-Imidazole, 1-[[1-(3-Chloro-4-fluorophenyl)-1H-imidazol-4-yl]methyl]-2-ethyl-, Hydrochloride (1:2)]?
A: IC50 (NMDA-receptor subtype 2B): 21 nM; melting point: 248 to 250 °C

Q: For Cc1nccn1Cc1ncn(-c2ccc(Cl)c(Cl)c2)c1C.Cl.Cl [Example 103, 1H-Imidazole, 1-(3,4-Dichlorophenyl)-5-methyl-4-[(2-methyl-1H-imidazol-1-yl)methyl]-, Hydrochloride (1:2)], which IC50 (NMDA-receptor subtype 2B) is on record?
A: The IC50 was 43 nM.

Q: And the melting point?
A: The melting point was > 240 °C (dec.).

Q: Which results are given for OCc1nccn1Cc1cn(-c2ccc(Cl)c(Cl)c2)cn1 [Example 109, {1-[1-(3,4-Dichloro-phenyl)-1H-imidazol-4-yl-methyl]-1H-imidazol-2-yl}-methanol]?
A: IC50 (NMDA-receptor subtype 2B): 85 nM; melting point: 202 to 203 °C

Q: For CCNc1nccn1Cc1cn(-c2ccc(Cl)c(Cl)c2)cn1.Cl.Cl [Example 111, {1-[1-(3,4-Dichloro-phenyl)-1H-imidazol-4-yl-methyl]-1H-imidazol-2-yl}-ethyl-amine Hydrochloride (1:2)], which IC50 (NMDA-receptor subtype 2B) is on record?
A: The IC50 was 11 nM.

Q: And the melting point?
A: The melting point was greater than 250 °C.

Q: For Cc1nccn1Cc1cn(-c2cccc(SC(F)(F)F)c2)cn1.Cl.Cl [Example 144, 1H-Imidazole, 2-Methyl-1-[[1-[3-(trifluoromethylthio)phenyl]-1H-imidazol-4-yl]methyl]-, Hydrochloride (1:2)], which IC50 (NMDA-receptor subtype 2B) is on record?
A: Its IC50 is 38 nM.

Q: And the melting point?
A: The melting point was 169 to 170 °C.

Q: Which IC50 (NMDA-receptor subtype 2B) does the source give for CCc1nccn1Cc1cn(-c2cccc(C(C)(F)F)c2)cn1.Cl.Cl [Example 146, 1H-Imidazole, 1-[[1-[3-(1,1-Difluoroethyl)phenyl]-1H-imidazol-4-yl]methyl]-2-ethyl-, Hydrochloride (1:2)] here?
A: The IC50 was 8 nM.

Q: What about the melting point of the same compound?
A: Its melting point is 130 to 134 °C (dec.).

Q: For Cc1nccn1Cc1cn(-c2cccc(C(C)(F)F)c2)cn1.Cl.Cl [Example 147, 1H-Imidazole, 1-[[1-[3-(1,1-Difluoroethyl)phenyl]-1H-imidazol-4-yl]methyl]-2-methyl-, Hydrochloride (1:2)], which IC50 (NMDA-receptor subtype 2B) is on record?
A: The IC50 was 9.2 nM.

Q: And the melting point?
A: Its melting point is > 200 °C (dec.).

Q: Which results are given for Cc1nccn1Cc1cn(-c2ccc(F)c(C(C)(F)F)c2)cn1.Cl.Cl [Example 149, 1H-Imidazole, 1-[[1-[3-(1,1-Difluoroethyl)-4-fluorophenyl]-1H-imidazol-4-yl]methyl]-2-methyl-, Hydrochloride (1:2)]?
A: IC50 (NMDA-receptor subtype 2B): 8.2 nM; melting point: > 200 °C (dec.)

Q: Which IC50 (NMDA-receptor subtype 2B) does the source give for CC(F)(F)c1cc(-n2cnc(Cn3ccnc3)c2)ccc1F.Cl.Cl [Example 150, 1-[3-(1,1-Difluoro-ethyl)-4-fluoro-phenyl]-4-imidazol-1-ylmethyl-1H-imidazole Hydrochloride (1:2)] here?
A: The IC50 was 13.5 nM.

Q: What about the melting point of the same compound?
A: The melting point was > 200 °C (dec.).

Q: For Cc1nccn1Cc1cn(-c2cccc(C(C)C)c2)cn1.Cl.Cl [Example 152, 1H-Imidazole, 1-[[1-(3-Isopropylphenyl)-1H-imidazol-4-yl]methyl]-2-methyl-, Hydrochloride (1:2)], which IC50 (NMDA-receptor subtype 2B) is on record?
A: The IC50 was 10 nM.

Q: And the melting point?
A: Its melting point is > 200 °C (dec.).

Q: For CC(C)c1cccc(-n2cnc(Cn3ccnc3)c2)c1.Cl.Cl [Example 154, 4-Imidazol-1-ylmethyl-1-(3-isopropyl-phenyl)-1H-imidazole Hydrochloride (1:2)], which IC50 (NMDA-receptor subtype 2B) is on record?
A: The IC50 was 48 nM.

Q: And the melting point?
A: Its melting point is 200 to 206 °C.

Q: What does the source list for CCc1nccn1Cc1cn(-c2ccc(F)c(Br)c2)cn1.Cl.Cl [Example 156, 1H-Imidazole, 1-[[1-(3-Bromo-4-fluorophenyl)-1H-imidazol-4-yl]methyl]-2-ethyl-, Hydrochloride (1:2)]?
A: IC50 (NMDA-receptor subtype 2B): 14 nM; melting point: 238 to 239 °C

Q: With Cc1nccn1Cc1cn(-c2ccc(F)c(Br)c2)cn1.Cl.Cl [Example 157, 1H-Imidazole, 1-[[1-(3-Bromo-4-fluorophenyl)-1H-imidazol-4-yl]methyl]-2-methyl-, Hydrochloride (1:2)] as the compound, how does the IC50 (NMDA-receptor subtype 2B) read?
A: Its IC50 is 14 nM.

Q: And the melting point?
A: Its melting point is 232 to 233 °C.

Q: Which IC50 (NMDA-receptor subtype 2B) does the source give for Cl.Cl.Fc1ccc(-n2cnc(Cn3ccnc3)c2)cc1Br [Example 158, 1-(3-Bromo-4-fluoro-phenyl)-4-imidazol-1-ylmethyl-1H-imidazole Hydrochloride (1:2)] here?
A: Its IC50 is 41 nM.

Q: And the melting point?
A: Its melting point is 229 to 230 °C.

Q: For CCc1cccc(-n2cnc(Cn3ccnc3C)c2)c1.Cl.Cl [Example 159, 1H-Imidazole, 1-[[1-(3-Ethylphenyl)-1H-imidazol-4-yl]methyl]-2-methyl-, Hydrochloride (1:2)], which IC50 (NMDA-receptor subtype 2B) is on record?
A: Its IC50 is 14 nM.

Q: And the melting point?
A: The melting point was > 200 °C (dec.).

Q: With CCc1cccc(-n2cnc(Cn3ccnc3CC)c2)c1.Cl.Cl [Example 160, 1H-Imidazole, 2-Ethyl-1-[[1-(3-ethylphenyl)-1H-imidazol-4-yl]methyl]-, Hydrochloride (1:2)] as the compound, how does the IC50 (NMDA-receptor subtype 2B) read?
A: The IC50 was 16 nM.

Q: And the melting point?
A: Its melting point is > 200 °C (dec.).

Q: With CCc1cccc(-n2cnc(Cn3ccnc3)c2)c1.Cl.Cl [Example 161, 1-(3-Ethyl-phenyl)-4-imidazol-1-ylmethyl-1H-imidazole Hydrochloride (1:2)] as the compound, how does the IC50 (NMDA-receptor subtype 2B) read?
A: The IC50 was 50 nM.

Q: And the melting point?
A: The melting point was > 190 °C (dec.).

Q: Which IC50 (NMDA-receptor subtype 2B) does the source give for Cc1nccn1Cc1cn(-c2cccc(C3CC3)c2)cn1.Cl.Cl [Example 162, 1H-Imidazole, 1-[[1-(3-Cyclopropylphenyl)-1H-imidazol-4-yl]methyl]-2-methyl-, Hydrochloride (1:2)] here?
A: Its IC50 is 16 nM.

Q: What about the melting point of the same compound?
A: Its melting point is 174 to 175 °C.

Q: For Cc1nccn1Cc1cn(-c2ccc(F)c(C(F)F)c2)cn1.Cl.Cl [Example 163, 1H-Imidazole, 1-[[1-(3-Difluoromethyl-4-fluorophenyl)-1H-imidazol-4-yl]methyl]-2-methyl-, Hydrochloride (1:2)], which IC50 (NMDA-receptor subtype 2B) is on record?
A: Its IC50 is 17 nM.

Q: What about the melting point of the same compound?
A: The melting point was 223 to 225 °C (dec.).

Q: Which IC50 (NMDA-receptor subtype 2B) does the source give for Cl.Cl.Fc1ccc(-n2cnc(Cn3ccnc3)c2)cc1C(F)F [Example 165, 1-(3-Difluoromethyl-4-fluoro-phenyl)-4-imidazol-1-ylmethyl-1H-imidazole Hydrochloride (1:2)] here?
A: The IC50 was 46 nM.

Q: And the melting point?
A: Its melting point is 239 to 241 °C.

Q: With CCc1nccn1Cc1cn(-c2cccc(SC)c2)cn1.Cl.Cl [Example 166, 1H-Imidazole, 2-Ethyl-1-[[1-[3-(methylthio)phenyl]-1H-imidazol-4-yl]methyl]-, Hydrochloride (1:2)] as the compound, how does the IC50 (NMDA-receptor subtype 2B) read?
A: Its IC50 is 20 nM.

Q: What about the melting point of the same compound?
A: The melting point was > 200 °C (dec.).

Q: With Cc1nccn1Cc1cn(-c2cccc(OC(F)(F)F)c2)cn1.Cl.Cl [Example 170, 1H-Imidazole, 2-Methyl-1-[[1-[3-(trifluoromethoxy)phenyl]-1H-imidazol-4-yl]methyl]-, Hydrochloride (1:2)] as the compound, how does the IC50 (NMDA-receptor subtype 2B) read?
A: The IC50 was 39 nM.

Q: And the melting point?
A: Its melting point is 221 to 223 °C.
